In patent US8815928B2, “Hepatitis C virus inhibitors” (priority 2009, dated 2014) one finds EC50 data, which are given here for one molecule.

This test has as its system HCV 1b genotype replicon. Kind of test: HCV genotype-1b replicon assay (qRT-PCR or luciferase). Type of test: cell-based. The conditions noted are these: Hepatitis C virus, read-out: Genotype-1b replicon EC50 Range. From the text:
HCV replicon cell lines (kindly provided by R. Bartenschlager) isolated from colonies as described by Lohman et. al. (Lohman et al. (1999) Science 285: 110-113, expressly incorporated by reference in its entirety) and used for all experiments. The HCV replicon has the nucleic acid sequence set forth in EMBL Accession No.: AJ242651, the coding sequence of which is from nucleotides 1801 to 8406.
The coding sequence of the published HCV replicon was synthesized and subsequently assembled in a modified plasmid pBR322 (Promega, Madison, Wis.) using standard molecular biology techniques. […]
EC50 values of single agent compounds and combinations were determined by HCV RNA detection using quantitative RT-PCR, according to the manufacturer's instructions, with a TAQMAN® One-Step RT-PCR Master Mix Reagents Kit (Cat# AB 4309169, Applied Biosystems) on an ABI Model 7500 thermocycler. The TaqMan primers used for detecting and quantifying HCV RNA were obtained from Integrated DNA Technologies. HCV RNA was normalized to GAPDH RNA levels in drug-treated cells, which was detected and quantified using the Human GAPDH Endogenous Control Mix (Applied Biosystems, AB 4310884E). […] Chemical agent cytotoxicity was evaluated using an MTS assay according to the manufacturer's directions (Promega). […]
(In general: In antiviral work, replicon cells carry a viral genome segment that copies itself.)

pEC50: −log10 of the molar value.

For orientation: pEC50 means the EC50 on a negative log10 scale, so that one unit is a factor of ten. On to `COC(=O)N[C@H](C(=O)N1CCC[C@H]1C(=O)Nc1ncc(-c2ccc3cc(-c4cnc([C@@H]5CCCN5C(=O)[C@@H](NC(=O)OC)C(C)C)[nH]4)ccc3c2)cn1)C(C)C` [Compound 348], for which the pEC50 was 8.00 to 9.00.
